Measurements taken from patent US8853282B1, “Topical liquid insecticide compositions” (priority 2014, dated 2014).
In brackets after ≈: the same amount, converted by molar mass.

Key:
[1] = cited from earlier work
ticks = conditions: cited from earlier work
fleas = conditions: cited from earlier work
[2] = Solubility in aprotic polar solvents; format: physicochemical
From the text: Dinotefuran is a hydrophilic compound that will dissolve in water (approx. 40 g/L). While dinotefuran is most preferred, nitenpyram is highly hydrophilic and could be used in formulations where higher levels of neo-nicotinoid would be desirable. The ether pyrethroid etofenprox will dissolve in some aprotic polar solvents to provide up to 40-60 weight percent while most ester pyrethroids had little solubility. Other ether pyrethroids may be useful provided they have insecticidal activity and may be desirable because of cost and relatively low hydrophobicity.

felines = conditions: cited from earlier work

| SMILES | Water Solubility [1] [mg/mL] | dissolve in water [1] | kill of ticks (ticks) | kill of fleas (fleas) | solubility in water [1] [mg/mL] | dissolves in some aprotic polar solvents [2] | toxicity to felines (felines) |
| --- | --- | --- | --- | --- | --- | --- | --- |
| CN/C(=N/CC1CCOC1)N[N+](=O)[O-] (centres unmarked) [Dinotefuran] | 39.83 | approx. 40 g/L | not ticks | will kill fleas | – | – | – |
| C/C(=N\C#N)N(C)Cc1ccc(Cl)nc1 [Acetamiprid] | 2.95 | – | – | – | – | – | – |
| CCN(Cc1ccc(Cl)nc1)/C(=C/[N+](=O)[O-])NC [Nitenpyram] | 840 | – | – | – | – | – | – |
| CCOc1ccc(C(C)(C)COCc2cccc(Oc3ccccc3)c2)cc1 [Etofenprox] | – | – | will kill both fleas and ticks | will kill both fleas and ticks | 0.001 (≈ 2.66 µM) | 40-60 weight percent | not toxic to felines |
